According to a melting point compilation (Tetko et al.; mined from patent text by program, amines drawn as free bases though some values may be those of a salt):

| melting point [°C] | SMILES |
| --- | --- |
| 190 to 192 | COc1cccc(Nc2n[nH]c3ncn(-c4cccc(Cl)c4)c(=N)c23)c1 |
| 174 to 175 | COc1ccc2c(c1)c1c(n2Cc2ccccc2)CCCC1=O |
| 78 | CCC(C)(CCc1ccccc1)NC(=O)n1nc(C)n(N)c1=O (configuration not stated) |
| 160 to 162 | Cc1c(C(=O)Nc2ccc(OCC(C)C)c(C#N)c2)cnn1C |
| 198 to 200 | O=C(NCC1Cc2cccc(-c3c(Cl)cccc3Cl)c2O1)OCc1ccccc1 (configuration not stated) |
| 60 to 61 | COC(=O)N1C2CCC1CC(=O)C2 |
| 147 to 149 | N#CCCNC(=O)c1cccc(-c2ccc3c(c2)N(CCc2ccc(Cl)cc2Cl)CC3)c1 |
| 114 to 116 | C=CCC(CC=C)(C(=O)NO)S(=O)(=O)c1ccc(OC)cc1 |
| 192 | CC1=C(Cl)C(c2ccccc2)C([N+](=O)[O-])=C(C)N1 (configuration not stated) |
| 240 to 241 | CCC(CC)Cn1c(=O)c(=O)[nH]c2cc([N+](=O)[O-])c(-n3cccc3C(=O)OC)cc21 |
| < 50 | CCSCCn1c(=N)sc2cc(OC(F)(F)C(F)(F)F)ccc21 |
| 152 | CC(C)(C)N(Cc1ccccc1)NC(=O)c1ccco1 |
| 170 to 172 | CN1CCC(c2c[nH]c3ccc(CCS(=O)(=O)N(C)C)cc23)CC1 |
| 184 to 185 | CSc1ccc(CSc2nnc(-c3ccc4[nH]ncc4c3)o2)cc1C(F)(F)F |
| 136 | CCOc1ccc(S(=O)(=O)N(CC(=O)NN=C2C(=O)Nc3ccccc32)c2ccccc2)cc1 |
| 48 to 50 | OCC(COCCCCCCCCOc1ccc(-c2ccccc2)cc1)OCc1ccccc1 (configuration not stated) |
| 103 to 105 | COc1c(N(C)C)cc(CC(C#N)=CNc2ccccc2)cc1N(C)C |
| 168 to 170 | Cc1ccc(S(=O)(=O)Nc2ccc(C(=O)CN3CCN(c4ccncc4)CC3)cc2)cc1 |
| 144 to 146 | CC(C)C1(C)NC(c2ccccc2C(=O)N(C)C)=NC1=O (configuration not stated) |
| 96 | C#CCN1CCCc2ccc(OC(=O)Nc3ccccc3C)cc21 |
| 220 to 221 | C=CCOn1c(=O)[nH]c2cc(F)c(F)cc2c1=O |
| 117 to 119 | Cc1cnc(Cl)c(C(=O)N(C)C)c1 |
| 77 to 78 | CC(=O)OCC1OC(OC(C)=O)C(N=[N+]=[N-])C(OC(C)=O)C1OC1OC(COC(C)=O)C(OC(C)=O)C(OC(C)=O)C1OC(C)=O (configuration not stated) |
| 119 to 122 | CCOC(=O)C1=C(NC(C)=O)C(=O)O[C@@H]1C |

| melting point [°C] | SMILES |
| --- | --- |
| 190 to 191 | O=c1c(-c2ccc(Cl)cc2)c[nH]n1-c1ncccn1 |
| 210 to 211 | C[C@H]([C@](O)(Cn1cncn1)c1ccc(F)cc1F)S(=O)(=O)N1CCN(Cc2nncn2C)CC1 |
| 216 to 219 | O=C(O)c1cn(C2CC2)c2cc(N3CCC(c4ccccn4)C3)c(F)cc2c1=O (configuration not stated) |
| 245 to 247 | Cc1cccc(NC(=O)NC2CN(C(=O)CN3CCN(C)CC3)c3ccccc3N(CC(=O)c3ccccc3C)C2=O)c1 (configuration not stated) |
| 145 to 147 | O=C1OC(CN2CCC(O)(c3ccc(F)cc3)CC2)CN1c1ccc(F)cc1 (configuration not stated) |
| 85 to 87 | CC(=O)Oc1ccccc1C=C1CCCc2cc(C)cnc21 |
| > 300 | Cn1c(=O)c2c(-c3ccccc3)n(-c3ccccc3N)cc2n(C)c1=O |
| 74 to 75 | Oc1cccc(CCCn2ccnn2)c1 |
| 95 to 97 | CCCNC(=S)NCCc1cccc2ccc(OC)cc12 |
| 132 to 134 | COC(=O)C(C)(C)C(Cc1ccc(OC)cc1)N(C)S(=O)(=O)c1ccc(C)cc1 (configuration not stated) |
| 178 to 179 | COc1ccc(S(=O)(=O)Nc2cccnc2Nc2ccc(O)cc2)cc1 |
| 136 to 137 | CC1CCc2ncc(C(=O)NN)c(=O)n21 (configuration not stated) |
| 143 to 144 | CCOC(=O)c1c(S(C)(=O)=O)c(N=O)c2ccccn12 |
| 72 | CN(C(=O)Nc1cccc(C(F)(F)F)c1)S(C)(=O)=O |
| 137 to 138 | Fc1ccc(-c2ncn(C3CCNCC3)c2-c2ccnc(Oc3cccc(C(F)(F)F)c3)n2)cc1 |
| 124 to 126 | O=C(O)CCc1ccc(CO)cc1 |
| 144 | O=C(Nc1ccc(Cl)c(Cl)c1)c1cc(C(F)(F)F)cc([N+](=O)[O-])c1N1CCCCC1 |
| 50 to 53 | C#CCN(c1nnc(C)c2ccccc12)c1nc2ccccc2n1-c1ccccc1 |
| 58 to 60 | CCCCCCCCCCCCCCCCCCCCSCCCO |
| 167 | CCOCCC(=O)OC1(C(=O)CO)CCC2C3CC(C)C4=CC(=O)C=CC4(C)C3C(O)CC21C (configuration not stated) |
| 135 to 138 | O=C1Nc2cc(Cl)ccc2OC1CCO (configuration not stated) |
| 76 to 78 | OCc1nccc(N2CCOCC2)n1 |
| > 300 | CC(=O)Nc1cccc2c1C(=O)c1c-2n[nH]c1-c1ccc(N(C)C)cc1 |
| 129 | COC1CCC(CCNC(=O)n2cc(F)c(=O)[nH]c2=O)CC1OC (configuration not stated) |

| melting point [°C] | SMILES |
| --- | --- |
| 106 to 107 | CCCOc1ccc(CN2CCOCC2)cc1-c1nc2c(CCC)nn(C)c2c(=O)[nH]1 |
| 177 to 178 | O=C1CCC(c2ccc(C(F)(F)F)cc2)=NN1 |
| 210 to 214 | Oc1ccc(-c2cc3c(Cl)c(O)ccc3o2)cc1 |
| 250 to 252 | COc1ccc(C2=C(c3ccc(O)cc3)CCCc3cc(O)ccc32)cc1 |
| 55 to 57 | O=P(O)(O)C1(P(=O)(O)O)Cc2ccccc2C1 |
| 184 to 186 | COc1cc2c(cc1OC)N(C(=O)c1ccc(-c3ccccc3C(F)(F)F)c(C)c1)Cc1ccc(C(=O)N(C)CC(O)CO)n1C2 (configuration not stated) |
| 149 to 150 | CCOC(=O)CCCn1c(Nc2ccc(Cl)cc2)nc2c(Cl)ccc(C(CC)CC)c21 |
| 83.5 to 85.5 | Brc1cc2c(nc1-c1ccccc1)OCC2 |
| 116 to 118 | C#CCOc1ccc(NCc2ccccc2)c(C(=O)c2ccc(C3CC3)cc2)c1 |
| 236 to 238 | NC(=O)c1cnn2c(-c3ccccc3)ccnc12 |
| 160 to 161 | CC(C)(C)c1ccc(C#N)cc1NC(=O)NCc1ccccc1 |
| 158 to 159 | CCCCOc1nc(NC(C)=O)nc2ccc(Cl)nc12 |
| 279 to 281 | CCn1cc(C(=O)O)c(=O)c2cc(F)c(Cl)cc21 |
| 216 to 218 | N#CC(C(=O)NCc1ccccc1)C(=O)c1nn(-c2ccc(F)cc2)c2c1CSc1ccc(Cl)cc1-2 (configuration not stated) |
| 195 to 196 | O=[N+]([O-])c1ccccc1/C=C/c1ccccc1[N+](=O)[O-] |
| 112 to 114 | O=C(CCCCCNC(=O)[C@H](Cc1c[nH]c2ccccc12)NC(=O)Cc1ccc2ccccc2c1)NO |
| 154 | Nc1c(SC(F)(F)F)nc(Br)n1-c1c(Cl)cc(C(F)(F)F)cc1Cl |
| 148 to 150 | Cc1cc(C)c(NS(=O)(=O)c2cc(S(=O)(=O)Nc3c(C)cc(C)cc3C)c3cc(O)ccc3c2)c(C)c1 |
| 135 to 137 | Clc1ccc(C2(c3ccccc3)OC2n2ccnc2)c(Cl)c1 (configuration not stated) |
| 130 to 131 | Oc1cc2c(cc1CNc1ccccc1)OCC2 |
| 53 to 54 | O=c1c(Cc2ccccc2)c2n(c(=O)n1CCCCSc1cccc3nccn13)CCCS2(=O)=O |
| 204 to 206 | CSc1nc2cc(Cl)c(Cl)cc2n1C1OC(CO)C(O)C1O (configuration not stated) |
| 167 to 168 | N/C(=C1/Sc2ccccc2C1=O)c1ccccc1Cl |
| 108 | CCOC(=O)CC(C(=O)c1ccc(Cl)cc1)C(=O)c1ccc(Cl)cc1 |

| melting point [°C] | SMILES |
| --- | --- |
| 111 to 112 | COC(=O)c1cncnc1NCc1ccncc1 |
| 200 to 232 | CCn1c(=O)c2[nH]c(C(C)C)nc2n(Cc2ccc3c(c2)OCO3)c1=O |
| 152 to 155 | CN(c1ccc([N+](=O)[O-])cc1C(F)(F)F)c1c(Cl)c(Cl)nc(Cl)c1Cl |
| 168 to 170 | Cc1ccc(C)c(C2C(=O)CC(C)(C)CC2=O)c1 |
| 80.5 to 89.9 | CNN1c2c(cc(Oc3ccc(F)cc3F)c(=O)n2NC)C=NC1SCc1ccccc1 (configuration not stated) |
| 132 to 135 | COC(=O)C1(C)CCc2c(C)c(O)c(C)c(C)c2O1 (configuration not stated) |
| 133 to 135 | O=[N+]([O-])c1ccc2c(c1)OC(COc1nccnc1N1CCNCC1)CO2 (configuration not stated) |
| 205 to 206 | COC(=O)c1c(-c2cc(OC)c(OC)c(OC)c2)c2cc(OC)c(OCc3cccs3)cc2c(=O)n1-c1ccc(N)cc1 |
| 126 to 129 | Cn1c(C(F)(F)F)cc(=O)n(-c2cc(OCc3ccccc3Cl)c(Cl)cc2F)c1=O |
| 51 to 52 | CC(C)(C)Oc1ccc2cc(C=O)ccc2c1 |
| 233 | NS(=O)(=O)c1ccc(-c2cccc(-c3nc(-c4ccc(Cl)s4)cc(C(F)(F)F)n3)c2)s1 |
| 185 to 186 | O=S(=O)(Cc1n[nH]c(-c2ccco2)n1)c1ccccc1 |
| 82 to 86 | Oc1ccc(O)c(-c2ccc(Cl)cc2Cl)c1 |
| 130 to 131 | OC1(c2cccn2Cc2ccccc2F)CCN(CCc2ccccc2)CC1 |
| 75 to 76 | CCN(c1nc(C)cc(C(=O)c2ncc[nH]2)n1)c1ccc(C(C)C)cc1Br |
| 198 to 199 | CCCCCCc1ccc(-n2c(-c3ccc(Br)cc3)ccc2-c2ccc(Br)cc2)cc1 |
| 93 | CCn1c(C(F)(F)F)n[nH]c1=S |
| 231 to 233 | Oc1ccc(Cn2cnc3c(-c4ccco4)ncnc32)cc1 |
| 131 to 132 | CC(=O)Nc1ccc(F)cc1C |
| 223 | CC(=O)OCC1=C(C(=O)O)N2C(=O)C(NC(=O)Cn3ccnc3S(C)(=O)=O)C2SC1 (configuration not stated) |
| 160 to 162 | CCOC(=O)Cc1ccc(NC(=O)C(COS(C)(=O)=O)NS(=O)(=O)c2ccc(I)cc2)cc1 (racemic) |
| 166 to 168 | CC(=O)CC(=O)Nc1nnc(C(C)(C)C)s1 |
| 68.5 to 69.5 | COC(=O)CC1CCNC1 (configuration not stated) |

| SMILES | melting point [°C] |
| --- | --- |
| Oc1cccc2c1CC(NC1CC1)CO2 (configuration not stated) | 147 to 148 |
| CCCCCCCCCCCCC(=O)c1cn(CCCC(=O)O)c2ccccc12 | 76 to 78 |
| CC(N)c1nc2cccc(Cl)c2c(=O)n1-c1cc(F)cc(F)c1 (configuration not stated) | 200 to 202 |
| CCCN1CC(c2cccc(O)c2)CC1C (configuration not stated) | 123 to 124 |
| COC(=O)C(C)N(C(=O)CF)c1c(C)cccc1Cl (configuration not stated) | 101 to 103 |
| CS(=O)(=O)CS(=O)(=O)Cl | 109 to 111 |
| COc1nc(C(=O)O)ccc1CN1CC1C#N (configuration not stated) | 96 to 97 |
